# What was measured:
# [1] = target: T1, binding of H^3-substance P to bovine retina (Bos taurus, UniProt F1MIX5); assay: binding of H^3-substance P to bovine retina, radio receptor assay; details: read-out: in vitro values (IC50), inhibition of binding of H^3-substance P to bovine retina
# T1 construct: from tissue; host or cells: bovine retina
# Procedure: In addition, the binding of H^3-substance P to bovine retina in the radio receptor assay according to H. Bittiger, Ciba Foundation Symposium 91, 196-199 (1982) is inhibited with IC50 values of from approximately 1 nmol. For example, the following in vitro values of about 10 nM were obtained for the target compounds of Examples 1 and 2.
# T1 sequence (F1MIX5 1-407): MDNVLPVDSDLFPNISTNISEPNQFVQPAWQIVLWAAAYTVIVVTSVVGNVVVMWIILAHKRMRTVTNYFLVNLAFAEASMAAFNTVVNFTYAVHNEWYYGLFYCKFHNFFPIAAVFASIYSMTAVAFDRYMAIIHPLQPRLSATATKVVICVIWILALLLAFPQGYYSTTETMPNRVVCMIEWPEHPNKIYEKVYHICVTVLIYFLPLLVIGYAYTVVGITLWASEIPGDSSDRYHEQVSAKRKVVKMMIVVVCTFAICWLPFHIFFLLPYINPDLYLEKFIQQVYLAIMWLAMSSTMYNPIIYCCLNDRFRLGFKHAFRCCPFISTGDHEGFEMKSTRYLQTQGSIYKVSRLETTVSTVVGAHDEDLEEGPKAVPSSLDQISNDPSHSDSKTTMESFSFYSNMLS
smiles,measurement,setting,value
"O=C(N[C@H]1CCN(C(=O)c2cc(C(F)(F)F)cc(C(F)(F)F)c2)[C@H](Cc2ccc(Cl)cc2)C1)c1cc(O)nc2ccccc12 [Example 2, 2-Hydroxy-quinoline-4-carboxylic acid [(2R,4S)-1-(3,5-bis-trifluoromethyl-benzoyl)-2-(4-chloro-benzyl)-piperidin-4-yl]-amide]",melting point,,222 to 224 °C
same,IC50,[1],~10 nM
"O=C(N[C@H]1CCN(C(=O)c2cc(C(F)(F)F)cc(C(F)(F)F)c2)[C@H](Cc2ccc(Cl)cc2)C1)c1cc[n+]([O-])c2ccccc12 [Example 1, 1-Oxy-quinoline-4-carboxylic acid [(2R,4S)-1-(3,5-bis-trifluoromethyl-benzoyl)-2-(4-chloro-benzyl)-piperidin-4-yl]-amide]",melting point,,223 to 225 °C
same,IC50,[1],~10 nM

# — patent US8193218B2, “Aroyl-piperidine derivatives and method of treating disorders induced by substance P” (Novartis AG, priority 2002, dated 2012)
